We go through 7 compounds from patent US10206394B2, “Herbicidal compounds” (Syngenta Participations AG, priority 2014, dated 2019).

Where two headings read alike, the source gives them in different places.

What all share (test): Glasshouse assay for herbicidal activity (pre- and post-emergence), percentage phytotoxicity
What all share (assay type): in vivo

Test [1] relates to Echinochloa crus-galli (ECHCG). To be noted: Echinochloa crus-galli. In short, it runs like this:
(§1)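 Percent injury was estimated by eye on a scale where 0% means no damage and 100% complete damage. Ratings came 15 DAA post-emergence and 20 DAA pre-emergence, with plants held under 16 h light and 65% humidity at 24/18 °C or 20/16 °C day/night.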

For test [2], the system named is Alopecurus myosuroides (ALOMY). The conditions noted are these: Alopecurus myosuroides. In short, it runs like this:
as §1

A further test relates to Lolium perenne (LOLPE). To be noted: Lolium perenne. In short, it runs like this:
as §1

In the next test the test system is Avena fatua (AVEFA). To be noted: Avena fatua. In short, it runs like this:
as §1

[3] abbreviates: post-emergence, 360 h, Rate 250 g/ha, post-emergence, assessed visually 15 DAA, 100%=total damage, 0%=no damage, read-out: Post-emergence herbicidal activity (percentage phytotoxicity) ECHCG POST.
Setting [4] is: pre-emergence, 480 h, Rate 250 g/ha, pre-emergence, assessed visually 20 DAA, 100%=total damage, 0%=no damage, read-out: Pre-emergence herbicidal activity (percentage phytotoxicity) ECHCG PRE.
[5] abbreviates: post-emergence, 360 h, Rate 250 g/ha, post-emergence, assessed visually 15 DAA, 100%=total damage, 0%=no damage, read-out: Post-emergence herbicidal activity (percentage phytotoxicity) ALOMY POST.
[6] abbreviates: pre-emergence, 480 h, Rate 250 g/ha, pre-emergence, assessed visually 20 DAA, 100%=total damage, 0%=no damage, read-out: Pre-emergence herbicidal activity (percentage phytotoxicity) ALOMY PRE.
[7] abbreviates: post-emergence, 360 h, Rate 250 g/ha, post-emergence, assessed visually 15 DAA, 100%=total damage, 0%=no damage, read-out: Post-emergence herbicidal activity (percentage phytotoxicity) LOLPE POST.
Where [8] appears, read: pre-emergence, 480 h, Rate 250 g/ha, pre-emergence, assessed visually 20 DAA, 100%=total damage, 0%=no damage, read-out: Pre-emergence herbicidal activity (percentage phytotoxicity) LOLPE PRE.
Setting [9] is: post-emergence, 360 h, Rate 250 g/ha, post-emergence, assessed visually 15 DAA, 100%=total damage, 0%=no damage, read-out: Post-emergence herbicidal activity (percentage phytotoxicity) AVEFA POST.
Where [10] appears, read: pre-emergence, 480 h, Rate 250 g/ha, pre-emergence, assessed visually 20 DAA, 100%=total damage, 0%=no damage, read-out: Pre-emergence herbicidal activity (percentage phytotoxicity) AVEFA PRE.
The mark [11] stands for this setting: post-emergence, 360 h, 250 g/ha, post-emergence, 15 DAA, visual assessment (100%=total damage, 0%=no damage), read-out: Post-emergence herbicidal activity (percentage phytotoxicity) ECHCG POST.
Setting [12] is: pre-emergence, 480 h, 250 g/ha, pre-emergence, 20 DAA, visual assessment (100%=total damage, 0%=no damage), read-out: Pre-emergence herbicidal activity (percentage phytotoxicity) ECHCG PRE.
[13] abbreviates: post-emergence, 360 h, 250 g/ha, post-emergence, 15 DAA, visual assessment (100%=total damage, 0%=no damage), read-out: Post-emergence herbicidal activity (percentage phytotoxicity) ALOMY POST.
Setting [14] is: pre-emergence, 480 h, 250 g/ha, pre-emergence, 20 DAA, visual assessment (100%=total damage, 0%=no damage), read-out: Pre-emergence herbicidal activity (percentage phytotoxicity) ALOMY PRE.
Where [15] appears, read: post-emergence, 360 h, 250 g/ha, post-emergence, 15 DAA, visual assessment (100%=total damage, 0%=no damage), read-out: Post-emergence herbicidal activity (percentage phytotoxicity) LOLPE POST.
Setting [16] is: pre-emergence, 480 h, 250 g/ha, pre-emergence, 20 DAA, visual assessment (100%=total damage, 0%=no damage), read-out: Pre-emergence herbicidal activity (percentage phytotoxicity) LOLPE PRE.
Setting [17] is: post-emergence, 360 h, 250 g/ha, post-emergence, 15 DAA, visual assessment (100%=total damage, 0%=no damage), read-out: Post-emergence herbicidal activity (percentage phytotoxicity) AVEFA POST.
[18] abbreviates: pre-emergence, 480 h, 250 g/ha, pre-emergence, 20 DAA, visual assessment (100%=total damage, 0%=no damage), read-out: Pre-emergence herbicidal activity (percentage phytotoxicity) AVEFA PRE.

`COCCCNC(=O)CC1CC(=O)C(c2c(C)cc(C)cc2C)C1=O` (centres unmarked) [Compound A176]: the pest or weed control at 250 g/ha amounted to 100% in test [1] (post-emergence, 360 h, post-emergence, 250 g/ha, 15 DAA, visual score (100%=total damage; 0%=no damage), read-out: ECHCG POST herbicidal activity (percentage phytotoxicity)); 100% in test [1] (pre-emergence, 480 h, pre-emergence, 250 g/ha, 20 DAA, visual score (100%=total damage; 0%=no damage), read-out: ECHCG PRE herbicidal activity (percentage phytotoxicity)); 90% in test [2] (post-emergence, 360 h, post-emergence, 250 g/ha, 15 DAA, visual score (100%=total damage; 0%=no damage), read-out: ALOMY POST herbicidal activity (percentage phytotoxicity)); 90% in test [2] (pre-emergence, 480 h, pre-emergence, 250 g/ha, 20 DAA, visual score (100%=total damage; 0%=no damage), read-out: ALOMY PRE herbicidal activity (percentage phytotoxicity)); 100% with Lolium perenne (LOLPE) (post-emergence, 360 h, post-emergence, 250 g/ha, 15 DAA, visual score (100%=total damage; 0%=no damage), read-out: LOLPE POST herbicidal activity (percentage phytotoxicity)); 100% in the test on Lolium perenne (LOLPE) (pre-emergence, 480 h, pre-emergence, 250 g/ha, 20 DAA, visual score (100%=total damage; 0%=no damage), read-out: LOLPE PRE herbicidal activity (percentage phytotoxicity)). Further, the pest or weed control at 250 g/ha amounted to 90% in the test with Avena fatua (AVEFA) (post-emergence, 360 h, post-emergence, 250 g/ha, 15 DAA, visual score (100%=total damage; 0%=no damage), read-out: AVEFA POST herbicidal activity (percentage phytotoxicity)) and 90% with Avena fatua (AVEFA) (pre-emergence, 480 h, pre-emergence, 250 g/ha, 20 DAA, visual score (100%=total damage; 0%=no damage), read-out: AVEFA PRE herbicidal activity (percentage phytotoxicity)).
For `Cc1cc(-c2ncc(F)cn2)cc(C)c1C1C(=O)CC(CC(=O)NCc2ccc(C(F)(F)F)nc2)C1=O` (centres unmarked) [Compound A136], the pest or weed control at 250 g/ha stood at 100% in test [1] (setting [3]); 90% in test [1] (setting [4]); 100% in test [2] (setting [5]); 80% in test [2] (setting [6]); 90% with Lolium perenne (LOLPE) (setting [7]); 80% in the test on Lolium perenne (LOLPE) (setting [8]). Further, the pest or weed control at 250 g/ha in the test on Avena fatua (AVEFA) (setting [9]) was 100%; in the test with Avena fatua (AVEFA) (setting [10]), 90%.
For `Cc1cc(C)c(C2C(=O)CC(CC(=O)NC3(C(F)(F)F)CC3)C2=O)c(C)c1` (centres unmarked) [Compound B138], the pest or weed control at 250 g/ha was determined as 80% in test [1] (setting [11]); 90% in test [1] (setting [12]); 90% in test [2] (setting [13]); 80% in test [2] (setting [14]); 80% in the test on Lolium perenne (LOLPE) (setting [15]); 70% with Lolium perenne (LOLPE) (setting [16]). Also, the pest or weed control at 250 g/ha in the test with Avena fatua (AVEFA) (setting [17]) stood at 70%; in the test on Avena fatua (AVEFA) (setting [18]), 0%.
On to `Cc1cc(-c2ccc(Cl)cn2)cc(C)c1C1C(=O)CC(CC(=O)NCC2CC2)C1=O` (centres unmarked) [Compound B362], for which the pest or weed control at 250 g/ha in test [1] (post-emergence, 360 h, Rate 250 g/ha, post-emergence, visual assessment 15 DAA, 100%=total damage, 0%=no damage, read-out: Post-emergence herbicidal activity (percentage phytotoxicity) ECHCG POST) was found to be 100%; in test [1] (pre-emergence, 480 h, Rate 250 g/ha, pre-emergence, visual assessment 20 DAA, 100%=total damage, 0%=no damage, read-out: Pre-emergence herbicidal activity (percentage phytotoxicity) ECHCG PRE) it was 100%; in test [2] (post-emergence, 360 h, Rate 250 g/ha, post-emergence, visual assessment 15 DAA, 100%=total damage, 0%=no damage, read-out: Post-emergence herbicidal activity (percentage phytotoxicity) ALOMY POST) it was 90%; in test [2] (pre-emergence, 480 h, Rate 250 g/ha, pre-emergence, visual assessment 20 DAA, 100%=total damage, 0%=no damage, read-out: Pre-emergence herbicidal activity (percentage phytotoxicity) ALOMY PRE) it was 100%; in the test on Lolium perenne (LOLPE) (post-emergence, 360 h, Rate 250 g/ha, post-emergence, visual assessment 15 DAA, 100%=total damage, 0%=no damage, read-out: Post-emergence herbicidal activity (percentage phytotoxicity) LOLPE POST), 90%; in the test with Lolium perenne (LOLPE) (pre-emergence, 480 h, Rate 250 g/ha, pre-emergence, visual assessment 20 DAA, 100%=total damage, 0%=no damage, read-out: Pre-emergence herbicidal activity (percentage phytotoxicity) LOLPE PRE), 100%. Also, the pest or weed control at 250 g/ha in the test with Avena fatua (AVEFA) (post-emergence, 360 h, Rate 250 g/ha, post-emergence, visual assessment 15 DAA, 100%=total damage, 0%=no damage, read-out: Post-emergence herbicidal activity (percentage phytotoxicity) AVEFA POST) was found to be 100%; in the test on Avena fatua (AVEFA) (pre-emergence, 480 h, Rate 250 g/ha, pre-emergence, visual assessment 20 DAA, 100%=total damage, 0%=no damage, read-out: Pre-emergence herbicidal activity (percentage phytotoxicity) AVEFA PRE), 100%.
For the compound `CC#Cc1cc(C)c(C2C(=O)CC(CC(=O)NC(C)(C)CC)C2=O)c(CC)c1` (centres unmarked) [Compound A50], the pest or weed control at 250 g/ha in test [1] (setting [3]) came to 100%; in test [1] (setting [4]), 90%; in test [2] (setting [5]), 100%; in test [2] (setting [6]), 100%; in the test with Lolium perenne (LOLPE) (setting [7]), 100%; in the test with Lolium perenne (LOLPE) (setting [8]) it was 100%. Moreover, the pest or weed control at 250 g/ha with Avena fatua (AVEFA) (setting [9]) and in the test on Avena fatua (AVEFA) (setting [10]) was 100% in each case.
As to `CCNC(=O)CC1CC(=O)C(c2c(C)cc(-c3ncc(Br)cn3)cc2C)C1=O` (centres unmarked) [Compound B282], the pest or weed control at 250 g/ha was found to be 100% in test [1] (post-emergence, 360 h, POST-emergence, rate 250 g/ha, visual score 15 DAA (100%=total damage, 0%=no damage), read-out: Post-emergence herbicidal activity (percentage phytotoxicity) ECHCG POST); 100% in test [1] (pre-emergence, 480 h, PRE-emergence, rate 250 g/ha, visual score 20 DAA (100%=total damage, 0%=no damage), read-out: Pre-emergence herbicidal activity (percentage phytotoxicity) ECHCG PRE); 100% in test [2] (post-emergence, 360 h, POST-emergence, rate 250 g/ha, visual score 15 DAA (100%=total damage, 0%=no damage), read-out: Post-emergence herbicidal activity (percentage phytotoxicity) ALOMY POST); 100% in test [2] (pre-emergence, 480 h, PRE-emergence, rate 250 g/ha, visual score 20 DAA (100%=total damage, 0%=no damage), read-out: Pre-emergence herbicidal activity (percentage phytotoxicity) ALOMY PRE); 100% in the test on Lolium perenne (LOLPE) (post-emergence, 360 h, POST-emergence, rate 250 g/ha, visual score 15 DAA (100%=total damage, 0%=no damage), read-out: Post-emergence herbicidal activity (percentage phytotoxicity) LOLPE POST); 100% with Lolium perenne (LOLPE) (pre-emergence, 480 h, PRE-emergence, rate 250 g/ha, visual score 20 DAA (100%=total damage, 0%=no damage), read-out: Pre-emergence herbicidal activity (percentage phytotoxicity) LOLPE PRE). In addition, the pest or weed control at 250 g/ha in the test with Avena fatua (AVEFA) (post-emergence, 360 h, POST-emergence, rate 250 g/ha, visual score 15 DAA (100%=total damage, 0%=no damage), read-out: Post-emergence herbicidal activity (percentage phytotoxicity) AVEFA POST) was determined as 100%; with Avena fatua (AVEFA) (pre-emergence, 480 h, PRE-emergence, rate 250 g/ha, visual score 20 DAA (100%=total damage, 0%=no damage), read-out: Pre-emergence herbicidal activity (percentage phytotoxicity) AVEFA PRE) it was 100%.
Turning to `Cc1cc(-c2ncc(Cl)cc2F)cc(C)c1C1C(=O)CC(CC(=O)NCC2CC2(Cl)Cl)C1=O` (centres unmarked) [Compound B160], the pest or weed control at 250 g/ha in test [1] (setting [11]) came to 100%; in test [1] (setting [12]), 100%; in test [2] (setting [13]) it was 100%; in test [2] (setting [14]), 90%; with Lolium perenne (LOLPE) (setting [15]), 100%; with Lolium perenne (LOLPE) (setting [16]), 90%. Moreover, the pest or weed control at 250 g/ha in the test on Avena fatua (AVEFA) (setting [17]) is 100%; with Avena fatua (AVEFA) (setting [18]), 80%.
